Test results from US20100216779A1 (GLAXOSMITHKLINE LLC, priority 2007, published 2010).

Tests used:
[1] = biological target: T1, human IGF-1R (NIH-3T3 cells over expressing human IGF-1R) (Homo sapiens, UniProt P08069); assay: IGF-1R cellular autophosphorylation (DELFIA); format: cell-based; details: IGF-1 stimulated
T1 construct: expressed in transfected cells; host or cells: NIH-3T3 (mouse fibroblasts)
Description: D. IGF-1R and IR Cellular Autophosphorylation (DELFIA)
NIH-3T3 cells over expressing human IGF-1R or IR were plated in 96-well plates (10,000 cells/well) in culture media containing 10% fetal bovine serum and incubated at 37° C. in a 5% CO2 incubator. Twenty four hours post-plating, cells were treated with different concentrations of test compounds ranging from 30 uM to 1.5 nM. Two hours after compound addition, cells were stimulated with either human IGF-1 (30 ng/mL) or insulin (3 ug/mL) for 15 minutes. Cell lysates are analyzed for phosphorylated receptors using dissociation enhanced lanthanide fluor-immuno assay (DELFIA) with anti-IGF-1R (MAB391, R&D Systems, Minneapolis, Minn.) or anti-IR[…](sc-711, Santa Cruz Biotechnology, Santa Cruz, Calif.) capture antibody and europium-labeled anti-pTyr antibody (Eu-N1 PT66, Perkin Elmer, Waltham, Mass.) for detection. The fluorescence signal for cells treated with compounds was expressed as percent relative to 100% stimulation (IGF-1 or insulin stimulated signal). […]

[2] = test system: COLO205 (colon); assay: Inhibition of cell proliferation, CellTiter-Glo, COLO205; format: cell-based; details: Homo sapiens, COLO 205, 72 h
Description: C. Inhibition of Cell Proliferation
Cell proliferation was measured by either CellTiter-Glo (measures cellular ATP level as a surrogate for total cell number) or by InCell analyzer (counts number of nuclei as a measure of cell number). For CellTiter-Glo assay, exponentially growing cell lines of different tumor origins, cultured in appropriate media containing 10% fetal bovine serum at 37° C. in a 5% CO2 incubator, were plated at low density (less than 2000 cells/well) in 96-well plates. […] Several wells were left untreated as a control. Seventy two hours post-treatment, cell numbers were determined using 50-100 ul per well of CellTiter-Glo (Promega #G7573). Plates were incubated at 37° C. for 30 minutes and the chemiluminescent signal was read on the Victor V or Envison 2100 reader. […]

T1 sequence (P08069 31-1367): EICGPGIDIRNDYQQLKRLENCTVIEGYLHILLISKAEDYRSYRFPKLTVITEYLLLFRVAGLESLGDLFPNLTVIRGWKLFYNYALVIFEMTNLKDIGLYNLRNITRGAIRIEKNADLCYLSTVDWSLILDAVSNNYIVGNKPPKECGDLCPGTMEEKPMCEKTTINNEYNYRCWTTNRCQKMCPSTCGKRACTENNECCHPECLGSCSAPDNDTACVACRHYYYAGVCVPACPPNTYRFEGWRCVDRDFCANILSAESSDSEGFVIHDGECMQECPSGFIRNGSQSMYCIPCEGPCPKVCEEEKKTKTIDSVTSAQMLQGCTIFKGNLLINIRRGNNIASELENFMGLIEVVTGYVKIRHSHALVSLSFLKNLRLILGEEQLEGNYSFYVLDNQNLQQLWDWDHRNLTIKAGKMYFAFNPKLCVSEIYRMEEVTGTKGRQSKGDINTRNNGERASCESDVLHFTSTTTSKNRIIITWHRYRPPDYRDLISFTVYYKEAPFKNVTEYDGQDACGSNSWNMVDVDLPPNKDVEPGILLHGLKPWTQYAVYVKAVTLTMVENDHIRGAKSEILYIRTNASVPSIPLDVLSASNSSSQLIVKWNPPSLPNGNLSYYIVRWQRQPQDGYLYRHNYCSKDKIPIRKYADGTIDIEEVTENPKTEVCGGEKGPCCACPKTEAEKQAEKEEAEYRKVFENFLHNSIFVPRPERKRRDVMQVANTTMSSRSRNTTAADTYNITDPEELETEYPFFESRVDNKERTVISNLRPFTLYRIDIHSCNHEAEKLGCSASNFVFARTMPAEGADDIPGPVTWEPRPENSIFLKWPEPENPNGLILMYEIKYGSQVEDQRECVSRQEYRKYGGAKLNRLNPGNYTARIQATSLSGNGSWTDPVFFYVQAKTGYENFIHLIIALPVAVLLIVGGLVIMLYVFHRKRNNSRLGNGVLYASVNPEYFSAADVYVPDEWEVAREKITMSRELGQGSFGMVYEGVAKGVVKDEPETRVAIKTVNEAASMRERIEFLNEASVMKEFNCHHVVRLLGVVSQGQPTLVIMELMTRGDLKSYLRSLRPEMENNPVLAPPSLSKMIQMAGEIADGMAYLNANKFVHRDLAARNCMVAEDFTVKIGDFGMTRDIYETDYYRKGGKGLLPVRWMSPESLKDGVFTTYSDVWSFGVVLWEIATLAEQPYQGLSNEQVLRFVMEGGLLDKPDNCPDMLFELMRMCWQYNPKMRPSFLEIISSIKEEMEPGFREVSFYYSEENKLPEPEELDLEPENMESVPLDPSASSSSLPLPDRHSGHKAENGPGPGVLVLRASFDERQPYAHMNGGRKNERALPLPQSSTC

| IC50 [1] [nM] | IC50 [2] [nM] | Structure (SMILES) |
| --- | --- | --- |
| < 100 | 250 to 1000 | COc1cc(N2CCC(N3CCOCC3)CC2)ccc1Nc1nccc(-c2c(-c3cccc(C(=O)Nc4c(F)cccc4F)c3)nc3ccccn23)n1 [Example 38, N-(2,6-difluorophenyl)-3-{3-[2-({2-(methyloxy)-4-[4-(4-morpholinyl)-1-piperidinyl]phenyl}amino)-4-pyrimidinyl]imidazo[1,2-a]pyridin-2-yl}benzamide] |
| < 100 | < 250 | COc1cc(N2CCC(N3CCC[C@H](O)C3)CC2)ccc1Nc1nccc(-c2c(-c3ccc(OC)c(C(=O)Nc4c(F)cccc4F)c3)nc3ccccn23)n1 [Example 84, N-(2,6-difluorophenyl)-5-[3-(2-{[4-[(3S)-3-hydroxy-1,4′-bipiperidin-1′-yl]-2-(methyloxy)-phenyl]amino}-4-pyrimidinyl)imidazo[1,2-a]pyridin-2-yl]-2-(methyloxy)benzamide] |
|  | 250 to 1000 | COc1cc(N2CCC(N3CCN(S(C)(=O)=O)CC3)CC2)ccc1Nc1nccc(-c2c(-c3ccc(OC)c(C(=O)Nc4c(F)cccc4F)c3)nc3ccccn23)n1 [Example 69] |
| < 100 | < 250 | COc1cc(CCN2CCN(C)CC2)ccc1Nc1nccc(-c2c(-c3ccc(OC)c(C(=O)Nc4c(F)cccc4F)c3)nc3ccccn23)n1 [Example 131, N-(2,6-difluorophenyl)-2-(methyloxy)-5-{3-[2-({2-(methyloxy)-4-[2-(4-methyl-1-piperazinyl)ethyl]phenyl}amino)-4-pyrimidinyl]imidazo[1,2-a]pyridin-2-yl}benzamide] |
| 100 to 500 | 250 to 1000 | COc1ccc(N2CCC(N3CCCCC3)CC2)cc1Nc1nccc(-c2c(-c3cccc(C(=O)Nc4c(F)cccc4F)c3)nc3ccccn23)n1 [Example 30, 3-[3-(2-{[5-(1,4′-bipiperidin-1′-yl)-2-(methyloxy)phenyl]amino}-4-pyrimidinyl)imidazo[1,2-a]pyridin-2-yl]-N-(2,6-difluorophenyl)benzamide] |
| < 100 | 250 to 1000 | COc1cc(N2CCC(OC)CC2)ccc1Nc1nccc(-c2c(-c3ccc(OC)c(C(=O)Nc4c(F)cccc4F)c3)nc3ccccn23)n1 [Example 126, N-(2,6-difluorophenyl)-2-(methyloxy)-5-{3-[2-({2-(methyloxy)-4-[4-(methyloxy)-1-piperidinyl}phenyl}amino)-4-pyrimidinyl]imidazo[1,2-a]pyridin-2-yl]benzamide] |
| < 100 | 250 to 1000 | COc1cc(N2CCC(N3CC[C@H](F)C3)CC2)ccc1Nc1nccc(-c2c(-c3cccc(C(=O)Nc4c(F)cccc4F)c3)nc3ccccn23)n1 [Example 77, N-(2,6-difluorophenyl)-3-[3-(2-{[4-{4-[(3S)-3-fluoro-1-pyrrolidinyl]-1-piperidinyl}-2-(methyloxy)phenyl]amino}-4-pyrimidinyl)imidazo[1,2-a]pyridin-2-yl]benzamide] |

The remaining lines, values behind:

| Structure (SMILES) | IC50 [1] [nM] | IC50 [2] [nM] |
| --- | --- | --- |
| CN(C)CCOc1cccc(Nc2nccc(-c3c(-c4cccc(C(=O)Nc5ccc(F)cc5F)c4)nc4ccccn34)n2)c1 [Example 13] | < 100 |  |
| COc1cc(CCN2CCOCC2)c(F)cc1Nc1nccc(-c2c(-c3ccc(OC)c(C(=O)Nc4c(F)cccc4F)c3)nc3ccccn23)n1 [Example 130, N-(2,6-difluorophenyl)-5-{3-[2-({5-fluoro-2-(methyloxy)-4-[2-(4-morpholinyl)ethyl]phenyl}-amino)-4-pyrimidinyl]imidazo[1,2-a]pyridin-2-yl}-2-(methyloxy)benzamide] | 100 to 500 | 250 to 1000 |
| COc1cc(N2CCOCC2)ccc1Nc1nccc(-c2c(-c3cccc(C(=O)Nc4c(F)cccc4F)c3)nc3ccccn23)n1 [Example 71, N-(2,6-difluorophenyl)-3-[3-(2-{[2-(methyloxy)-4-(4-morpholinyl)phenyl]amino}-4-pyrimidinyl)imidazo[1,2-a]pyridin-2-yl]benzamide] | < 100 | 250 to 1000 |
| COc1cc(CCN2CCCCC2)c(F)cc1Nc1nccc(-c2c(-c3cccc(C(=O)Nc4c(F)cccc4F)c3)nc3ccccn23)n1 [Example 128, N-(2,6-difluorophenyl)-3-{3-[2-({5-fluoro-2-(methyloxy)-4-[2-(1-piperidinyl)ethyl]phenyl}-amino)-4-pyrimidinyl]imidazo[1,2-a]pyridin-2-yl}benzamide] | 100 to 500 | 250 to 1000 |
| COc1cc(N2CCC(OC)CC2)ccc1Nc1nccc(-c2c(-c3cccc(C(=O)Nc4c(F)cccc4F)c3)nc3ccccn23)n1 [Example 125, N-(2,6-difluorophenyl)-3-{3-[2-({2-(methyloxy)-4-[4-(methyloxy)-1-piperidinyl]phenyl}-amino)-4-pyrimidinyl}imidazo[1,2-a]pyridin-2-yl]benzamide] | < 100 | 250 to 1000 |
| COc1cc(-c2nnc(CN3CCCC3)o2)ccc1Nc1nccc(-c2c(-c3cccc(C(=O)Nc4c(F)cccc4F)c3)nc3ccccn23)n1 [Example 29, N-(2,6-difluorophenyl)-3-{3-[2-({2-(methyloxy)-4-[5-(1-pyrrolidinylmethyl)-1,3,4-oxadiazol-2-yl]phenyl}amino)-4-pyrimidinyl]imidazo[1,2-a]pyridin-2-yl}benzamide] | 100 to 500 |  |
| CN(C)CCOc1cccc(Nc2nccc(-c3c(-c4cccc(C(=O)Nc5cc(Cl)ccc5F)c4)nc4ccccn34)n2)c1 [Example 9, N-(5-chloro-2-fluorophenyl)-3-(3-{2-[(3-{[2-(dimethylamino)ethyl]oxy}phenyl)amino]-4-pyrimidinyl}imidazo[1,2-a]pyridin-2-yl)benzamide] | 100 to 500 |  |
| COc1cc(CCN2CCCCC2)c(F)cc1Nc1nccc(-c2c(-c3cccc(C(=O)Nc4c(F)cc(F)cc4F)c3)nc3ccccn23)n1 [Example 129, 3-{3-[2-({5-fluoro-2-(methyloxy)-4-[2-(1-piperidinyl)ethyl]phenyl}amino)-4-pyrimidinyl]imidazo[1,2-a]pyridin-2-yl}-N-(2,4,6-trifluorophenyl)benzamide] | 100 to 500 | 250 to 1000 |
| COc1cc(N2CCC(N(C)C)CC2)ccc1Nc1nccc(-c2c(-c3cccc(C(=O)Nc4c(F)cccc4F)c3)nc3ccccn23)n1 [Example 74, N-(2,6-difluorophenyl)-3-[3-(2-{[4-[4-(dimethylamino)-1-piperidinyl]-2-(methyloxy)phenyl]amino}-4-pyrimidinyl)imidazo[1,2-a]pyridin-2-yl]benzamide] | < 100 | < 250 |
| COc1cc(CCN2CCCCC2)c(F)cc1Nc1nccc(-c2c(-c3ccc(OC)c(C(=O)Nc4c(F)cccc4F)c3)nc3ccccn23)n1 [Example 127, N-(2,6-difluorophenyl)-5-{3-[2-({5-fluoro-2-(methyloxy)-4-[2-(1-piperidinyl)ethyl]phenyl}-amino)-4-pyrimidinyl}imidazo[1,2-a]pyridin-2-yl}-2-(methyloxy)benzamide] | < 100 | 250 to 1000 |
| CN(C)CCOc1cccc(Nc2nccc(-c3c(-c4cccc(C(=O)Nc5cc(C(F)(F)F)ccc5F)c4)nc4ccccn34)n2)c1 [Example 10, 3-(3-{2-[(3-{[2-(dimethylamino)ethyl]oxy}phenyl)amino]-4-pyrimidinyl}imidazo[1,2-a]pyridin-2-yl)-N-[2-fluoro-5-(trifluoromethyl)phenyl]benzamide] | 100 to 500 |  |
| CN(C)CCOc1cccc(Nc2nccc(-c3c(-c4cccc(C(=O)Nc5c(F)cccc5F)c4)nc4ccccn34)n2)c1 [Example 20, N-(2,6-difluorophenyl)-3-(3-{2-[(3-{[2-(dimethylamino)ethyl]oxy}phenyl)amino]-4-pyrimidinyl}imidazo[1,2-a]pyridin-2-yl)benzamide] | 100 to 500 | < 250 |
| COc1cc(CCN2CCN(C)CC2)ccc1Nc1nccc(-c2c(-c3cccc(C(=O)Nc4c(F)cccc4F)c3)nc3ccccn23)n1 [Example 132, N-(2,6-difluorophenyl)-3-{3-[2-({2-(methyloxy)-4-[2-(4-methyl-1-piperazinyl)ethyl]phenyl}amino)-4-pyrimidinyl]imidazo[1,2-a]pyridin-2-yl}benzamide] | < 100 | 250 to 1000 |
| COc1cc(-c2nnc(CN3CCCC3)o2)ccc1Nc1nccc(-c2c(-c3ccc(OC)c(C(=O)Nc4c(F)cccc4F)c3)nc3ccccn23)n1 [Example 28, N-(2,6-difluorophenyl)-2-(methyloxy)-5-{3-[2-({2-(methyloxy)-4-[5-(1-pyrrolidinylmethyl)-1,3,4-oxadiazol-2-yl]phenyl]amino)-4-pyrimidinyl}imidazo[1,2-a]pyridin-2-yl}benzamide] | 100 to 500 |  |
| Cc1ccn2c(-c3ccnc(Nc4cccc(OCCN(C)C)c4)n3)c(-c3cccc(C(=O)Nc4c(F)cccc4F)c3)nc2c1 [Example 14, N-(2,6-difluorophenyl)-3-(3-{2-[(3-{[2-(dimethylamino)ethyl]oxy}phenyl)amino]-4-pyrimidinyl}-7-methylimidazo[1,2-a]pyridin-2-yl)benzamide] | > 500 |  |
